Literature values as cited in publication PMC4198332 (Chembiochem : a European journal of chemical biology, 2014).

How the values were obtained:
[1] = system: Methicillin-resistant S. aureus (MRSA) (ATCC 33591); details: included for comparison
[2] = system: Methicillin-resistant S. epidermidis (MRSE) (RP62A); details: included for comparison
[3] = system: Vancomycin-resistant E. faecalis (ATCC 700802); details: included for comparison
[4] = system: P. aeruginosa (ATCC 27853); details: included for comparison
E. coli (ATCC 25922) = details: included for comparison
[5] = system: human red blood cells (hRBCs)

For Pexiganan, the “MIC MRSA (+)” value [1] is listed as 16 µg/mL, the “MIC MRSE (+)” value [2] is listed as 8 µg/mL and the “MIC E. faecalis (+)” value [3] is listed as 32 µg/mL. The “MIC P. Aeruginosa (−)” value [4] was 16 µg/mL, the “MIC E. coli (−)” value (E. coli (ATCC 25922)) was 8 µg/mL and the “Hemolysis HC50” value [5] was “--/120 μg/mL”.
